Activity calls are given as the source filed them. The rule behind the calls is not given here.
How the values were obtained:
Musca domestica [1] = assay: Insecticidal activity against Musca domestica (house fly) assessed as mortality measured per fly; format: functional
Musca domestica [2] = assay: Insecticidal activity against Musca domestica (house fly) assessed as increase in mortality; format: functional, organism-based

SMILES	LD50 (Musca domestica [1])	Activity (Musca domestica [2])
CCCC[C@H]1Oc2cc(OC)c([C@H]3OC[C@]4(O)[C@@H](Oc5c(OC)cccc5OC)OC[C@H]34)cc2O[C@@H]1COC (mixture of isomers)	1 µg	
COC[C@H]1Oc2cc([C@H]3OC[C@]4(O)[C@@H](Oc5c(OC)cccc5OC)OC[C@H]34)c(OC)cc2O[C@@H]1C (mixture of isomers)	1 µg	
COC[C@H]1Oc2cc([C@H]3OC[C@]4(O)[C@@H](Oc5c(OC)cccc5OC)OC[C@H]34)c(OC)cc2O[C@H]1C (mixture of isomers)		inactive
COC[C@H]1Oc2cc([C@H]3OC[C@]4(O)[C@@H](Oc5c(OC)cc6c(c5OC)OCO6)OC[C@H]34)c(OC)cc2O[C@@H]1c1ccc2c(c1)OCO2 [(+)-HAEDOXAN A]	0.00025 µg	
